The values below come from US20260356846A1, “STATIN DERIVATIVES AND METHODS OF USING THE SAME” (The General Hospital Corporation, priority 2023, published 2026).

Data set [1] has as its system STMN2 (TDP-mut (N352S) STMN2-NLuc SH-SY5Y cells). The data set can be described thus: STMN2 nanoluciferase assay in TDP-43 mutant SH-SY5Y cells (Table A: mut TDP-43; Table B: mut HD Luciferase). The format is cell-based, human. As to conditions: mutant TDP-43 cell line. As for the experimental part: (§1) Neuroblastoma cells (ATCC) were cultured in DMEM/F12 (Gibco) supplemented with 10% fetal-bovine serum (Omega) and 1% penicillin-streptomycin (Gibco) at 37 °C with 5% CO2. For knockdown experiments, cells were transfected with SMARTpool ON-TARGETplus siRNA or control siRNA pool (D001810-10) (GE Dharmacon) at a final concentration of 50 nM, for 96 h in two doses (0, 24 h), after complexing with Lipofectamin RNAiMAX (Invitrogen) in Opti-MEM (Gibco) for 10 min.
(§2) WT and TDP-mut (N352S) SH-SY5Y cells were edited using CRISPR-Cas9 to express Nanoluciferase at the C-terminus of both endogenous STMN2 alleles. A single guided RNA targeting STMN2 C-terminus was designed (Benchling webtool) and cloned into pSpCas9-2A-green fluorescent protein (GFP) plasmid (px458-Addgene) using the BbsI restriction site. The sequence for guided RNA targeting STMN2 was: […]. For the repair template, overlapping fragments of 800 bp STMN2 homology arms flanking Nanoluciferase (NLuc, Promega) were generated and ligated into pUC57 backbone. A 42 bp GS-linker was also included 5′ to NLuc to prevent steric hindrance of the reporter to the final STMN2 exon. Fragments were ligated using Gibson Assembly and nucleofected simultaneously with pSpCas9-2A-GFP-gRNA plasmid using the Amaxa Nucleofector (assay A-023). Forty-eight hours following electroporation, cells were collected, and GFP-positive cells sorted and single-cell seeded into 96-well plates using the SH800S Sony cell sorter. Individual clones were expanded and DNA was extracted for PCR amplification of the STMN2 Ex5 genomic locus using primers within NLuc and outside the STMN2 5′ homology arm to confirm presence of the insert. The entire STMN2 coding region and all exon-intron junctions (>500-bp length of each intronic region) were then sequenced to verify the absence of any additional DNA alteration. qPCR analysis was performed with a wild-type isogenic SH-SY5Y cell line that had undergone the mutagenesis attempt but not acquired the insertion mutation during the original screening process.
(§3) TDP-mut STMN2-NLuc SH-SY5Y cells were used in small-molecule screening at ICCB-Longwood. 3000 cells/well were plated in white 384-well plates using a 50 ul sample volume. 24 hours after plating, compounds were added using 100 nl pin transfer. 24 hours later, 25 ul NLuc assay was added to each well according to manufacturer instructions (Promega, Cat #). Plates were shaken for 1 min prior to luminescence readings using EnVision2 machine. DMSO-only and WT STMN2-NLuc cells were included as negative and positive controls respectively on each plate, producing an average Z′score of ~0.7 across the screen. Each library plate was conducted in duplicate, and Z-scores calculated for each compound. For subsequent validation experiments, cell numbers in each well were quantified by hoescht staining at 1 μg/ml for 15 mins at 37C in black, clear bottom plates, prior to imaging at 4× using automated microscopy (ImageXpressMicro). Nuclei were then counted using a custom algorithm, and luciferase assay run as above. Luminescence results were then normalised against cell counts as RLU/cell.
(§4) Each compound was tested in triplicate in log doses ranging 0.01 μM−10 μM. The values are represented in luminescence normalized to the number of cells in the well, wherein darker grey correlates to higher RLU per cell and higher STMN2 protein expression.

Data set [2] relates to STMN2 (WT STMN2-NLuc SH-SY5Y cells). The data set can be described thus: STMN2 nanoluciferase assay in WT SH-SY5Y cells (Table A: WT TDP-32; Table B: WT HD Luciferase). The format is cell-based, human. As to conditions: WT cell line. As for the experimental part: as §1, §2, §3, §4
[3] abbreviates: Homo sapiens, SH-SY5Y, Table A, read-out: EC50, mut TDP-43.
Setting [4] is: Homo sapiens, SH-SY5Y, Table B, read-out: EC50, mut HD Luciferase.
[5] abbreviates: Homo sapiens, SH-SY5Y, Table A, read-out: EC50, WT TDP-32.
[6] abbreviates: Homo sapiens, SH-SY5Y, Table B, read-out: EC50, WT HD Luciferase.
[7] abbreviates: Homo sapiens, SH-SY5Y, Table B, Emax.

Read-outs that look alike come from different tables or passages of the source.

Turning to `O=C(O)C[C@H](O)C[C@H](O)/C=C/c1c(-c2ccc(F)cc2Cl)cc(C2CC2)nc1C1CC1` [II-8, (3R,5S,E)-7-(4-(2-chloro-4-fluorophenyl)-2,6-dicyclopropylpyridin-3-yl)-3,5-dihydroxyhept-6-enoic acid], the concentration for a half-maximal effect (EC50) in data set [1] (setting [3]) fell in the range of 100 to 500 nM; in data set [1] (setting [4]), 10 to 50 nM; in data set [2] (setting [5]), 100 to 500 nM; in data set [2] (setting [6]), 10 to 50 nM.
As for `COCc1c(C2CCC2)nc(C2CCC2)c(/C=C/[C@@H](O)C[C@@H](O)CC(=O)O)c1-c1ccc(F)cc1` [II-6, (3R,5S,E)-7-(2,6-dicyclobutyl-4-(4-fluorophenyl)-5-(methoxymethyl)pyridin-3-yl)-3,5-dihydroxyhept-6-enoic acid], the EC50 in data set [1] (setting [4]) and in data set [2] (setting [6]) was 10 to 50 nM each time.
On to `COCc1c(C2CC2)nc(C)c(/C=C/[C@@H](O)C[C@@H](O)CC(=O)O)c1-c1ccc(F)cc1C` [II-26, (3R,5S,E)-7-(6-cyclopropyl-4-(4-fluoro-2-methylphenyl)-5-(methoxymethyl)-2-methylpyridin-3-yl)-3,5-dihydroxyhept-6-enoic acid], for which the concentration for a half-maximal effect (EC50) in data set [1] (setting [4]) and in data set [2] (setting [6]) was at least 500 nM throughout. The “HD Luciferase (mut, Emax)” value in data set [1] (Table B) is “* (means≥1 and <1.25)”. Moreover, the maximal fold induction in data set [2] (setting [7]) lay in the range of 1 to 1.25.
Take `Cc1csc2c(-c3ccc(F)cc3Cl)c(/C=C/[C@@H](O)C[C@@H](O)CC(=O)O)c(C3CC3)nc12` [Example I-15, (3R,5S,E)-7-(7-(2-chloro-4-fluorophenyl)-5-cyclopropyl-3-methylthieno[3,2-b]pyridin-6-yl)-3,5-dihydroxyhept-6-enoic acid]: the EC50 in data set [1] (setting [4]) and in data set [2] (setting [6]) was 10 to 50 nM in each case.
For the compound `Cc1csc2nc(C3CC3)c(/C=C/[C@@H](O)C[C@@H](O)CC(=O)O)c(-c3ccc(F)cc3)c12` [Example I-10, (3R,5S,E)-7-(6-cyclopropyl-4-(4-fluorophenyl)-3-methylthieno[2,3-b]pyridin-5-yl)-3,5-dihydroxyhept-6-enoic acid], the EC50 in data set [1] (setting [4]) and in data set [2] (setting [6]) was 10 to 50 nM each time.
Regarding `O=C(O)C[C@H](O)C[C@H](O)/C=C/c1c(C2CC2)nc2c(C3CC3)csc2c1-c1ccc(F)cc1` [Example I-25, (3R,5S,E)-7-(3,5-dicyclopropyl-7-(4-fluorophenyl)thieno[3,2-b]pyridin-6-yl)-3,5-dihydroxyhept-6-enoic acid], the EC50 in data set [1] (setting [4]) and in data set [2] (setting [6]) was 10 to 50 nM each time. In data set [2] (setting [7]), the maximal fold induction lay in the range of 1.5 to 1.75.
Turning to `O=C(O)C[C@H](O)C[C@H](O)/C=C/c1c(C2CC2)nc(C2CC2)c(COC2CC2)c1-c1ccc(Cl)cc1F` [II-23, (3R,5S,E)-7-(4-(4-chloro-2-fluorophenyl)-5-(cyclopropoxymethyl)-2,6-dicyclopropylpyridin-3-yl)-3,5-dihydroxyhept-6-enoic acid], the EC50 in data set [1] (setting [4]) and in data set [2] (setting [6]) was 10 to 50 nM in each case.
Turning to `COCc1c(C2CC2)nc(C2CC2)c(/C=C/[C@@H](O)C[C@@H](O)CC(=O)O)c1-c1cc(F)ccc1C` [II-24, (3R,5S,E)-7-(2,6-dicyclopropyl-4-(5-fluoro-2-methylphenyl)-5-(methoxymethyl)pyridin-3-yl)-3,5-dihydroxyhept-6-enoic acid], the half-maximal effective concentration (EC50) in data set [1] (setting [4]) and in data set [2] (setting [6]) was 10 to 50 nM each time. Besides, the “HD Luciferase (mut, Emax)” value in data set [1] (Table B) was “** (means≥1.25 and <1.5)”. The maximal fold induction in data set [2] (setting [7]) lay in the range of 1.25 to 1.5.
Consider `O=C(O)C[C@H](O)C[C@H](O)/C=C/c1c(C2CC2)nc2ccsc2c1-c1ccc(F)cc1` [Example I-4, (3R,5S,E)-7-(5-cyclopropyl-7-(4-fluorophenyl)thieno[3,2-b]pyridin-6-yl)-3,5-dihydroxyhept-6-enoic acid], for which the EC50 in data set [1] (setting [3]) was in the range of 100 to 500 nM; in data set [1] (setting [4]), 10 to 50 nM; in data set [2] (setting [5]) it was 100 to 500 nM; in data set [2] (setting [6]), 10 to 50 nM.
As to `Cc1cc2nc(C3CC3)c(/C=C/[C@@H](O)C[C@@H](O)CC(=O)O)c(-c3ccc(F)cc3)c2s1` [Example I-6, (3R,5S,E)-7-(5-cyclopropyl-7-(4-fluorophenyl)-2-methylthieno[3,2-b]pyridin-6-yl)-3,5-dihydroxyhept-6-enoic acid], the EC50 in data set [1] (setting [4]) and in data set [2] (setting [6]) was 10 to 50 nM each time. This compound also showed a maximal fold induction in data set [2] (setting [7]) of 1.25 to 1.5.
As for `COCc1c(C2CC2)nc(C2CC2)c(/C=C/[C@@H](O)C[C@@H](O)CC(=O)O)c1-c1c(C)cccc1F` [II-18, (3R,5S,E)-7-(2,6-dicyclopropyl-4-(2-fluoro-6-methylphenyl)-5-(methoxymethyl)pyridin-3-yl)-3,5-dihydroxyhept-6-enoic acid], the EC50 in data set [1] (setting [4]) and in data set [2] (setting [6]) was 10 to 50 nM throughout.
`COCc1c(C2CC2)nc(C2CC2)c(/C=C/[C@@H](O)C[C@@H](O)CC(=O)O)c1-c1c(F)cccc1Cl` [II-22, (3R,5S,E)-7-(4-(2-chloro-6-fluorophenyl)-2,6-dicyclopropyl-5-(methoxymethyl)pyridin-3-yl)-3,5-dihydroxyhept-6-enoic acid]: the EC50 in data set [1] (setting [4]) and in data set [2] (setting [6]) was 10 to 50 nM throughout.
For the compound `Cc1cc2c(-c3ccc(F)cc3)c(/C=C/[C@@H](O)C[C@@H](O)CC(=O)O)c(C3CC3)nc2s1` [Example I-5b, (3R,5S,E)-7-(6-cyclopropyl-4-(4-fluorophenyl)-2-methylthieno[2,3-b]pyridin-5-yl)-3,5-dihydroxyhept-6-enoic acid], the “HD Luciferase (mut, Emax)” value in data set [1] (Table B) was “** (means≥1.25 and <1.5)”. The concentration for a half-maximal effect (EC50) lay in the range of 50 to 100 nM in data set [1] (Table B, read-out: EC50, mut HD Luciferase) and 100 to 500 nM in data set [2] (Table B, read-out: EC50, WT HD Luciferase). Further, the “HD Luciferase (WT, Emax)” value in data set [2] (Table B, Emax) was “** (means≥1.25 and <1.5)”.
On to `Cc1nc2cc(C3CC3)c(/C=C/[C@@H](O)C[C@@H](O)CC(=O)O)c(-c3ccc(F)cc3)c2s1` [Example I-8, (3R,5S,E)-7-(5-cyclopropyl-7-(4-fluorophenyl)-2-methylbenzo[d]thiazol-6-yl)-3,5-dihydroxyhept-6-enoic acid], for which the EC50 in data set [1] (setting [3]) is 100 to 500 nM; in data set [1] (setting [4]), 10 to 50 nM; in data set [2] (setting [5]), 100 to 500 nM; in data set [2] (setting [6]), 10 to 50 nM. In data set [2] (setting [7]), this compound came in with a maximal fold induction of 1.25 to 1.5.
For the compound `COCc1c(C2CCC2)nc(C2CC2)c(/C=C/[C@@H](O)C[C@@H](O)CC(=O)O)c1-c1ccc(F)cc1Cl` [II-4, (3R,5S,E)-7-(4-(2-chloro-4-fluorophenyl)-6-cyclobutyl-2-cyclopropyl-5-(methoxymethyl)pyridin-3-yl)-3,5-dihydroxyhept-6-enoic acid], the EC50 was at most 100 nM in data set [1] (setting [3]), at most 10 nM in data set [1] (setting [4]), at most 100 nM in data set [2] (setting [5]) and at most 10 nM in data set [2] (setting [6]).
Turning to `COCc1c(C2CCC2)nc(C2CC2)c(/C=C/[C@@H](O)C[C@@H](O)CC(=O)O)c1-c1ccc(F)cc1` [II-5, (3R,5S,E)-7-(6-cyclobutyl-2-cyclopropyl-4-(4-fluorophenyl)-5-(methoxymethyl)pyridin-3-yl)-3,5-dihydroxy hept-6-enoic acid], the EC50 was at most 100 nM in data set [1] (setting [3]), at most 10 nM in data set [1] (setting [4]), at most 100 nM in data set [2] (setting [5]) and at most 10 nM in data set [2] (setting [6]).
For `O=C(O)C[C@H](O)C[C@H](O)/C=C/c1c(-c2ccc(F)cc2Cl)cc(C2CC2)nc1C1CCC1` [II-27, (3R,5S,E)-7-(4-(2-chloro-4-fluorophenyl)-2-cyclobutyl-6-cyclopropylpyridin-3-yl)-3,5-dihydroxyhept-6-enoic acid], the EC50 in data set [1] (setting [4]) and in data set [2] (setting [6]) was at least 500 nM in each case. For the same compound, in data set [1] (Table B), the “HD Luciferase (mut, Emax)” value is “* (means≥1 and <1.25)”. In data set [2] (setting [7]), this compound registered a maximal fold induction of 1 to 1.25.
